Test results from PubChem BioAssay AID248 (DTP/NCI, 2004).
Values joined by “and” are separate entries in the source; they are usually repeats but may differ in a detail not shown here. Equal values may be shown once. Toxic doses and inconclusive results are not listed. Rule as the data show it: active = T/C of 150% or more; inactive = T/C below 125%.

System: L1210 leukemia ip in BDF1 mice, survival T/C
Experiment: NCI In Vivo Anticancer Drug Screen. Data for tumor model L1210 Leukemia (intraperitoneal) in B6D2F1 (BDF1) mice
Conditions: endpoint: mean survival time, higher = longer survival
How it was run: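 Tumor cells were implanted, animals were treated, and survival was followed. The result divides the treated measurement by the vehicle-control measurement.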

[1] = dose: 100.0 mg/kg/injection, schedule: Q01DX001 (ip), vehicle: saline with Tween-80
[2] = dose: 200.0 mg/kg/injection, schedule: Q01DX001 (ip), vehicle: saline with Tween-80
[3] = dose: 100.0 mg/kg/injection, schedule: Q04DX003 (ip), vehicle: Klucel (hydroxypropylcellulose) (HPC)
[4] = dose: 200.0 mg/kg/injection, schedule: Q04DX003 (ip), vehicle: Klucel (hydroxypropylcellulose) (HPC)
[5] = dose: 400.0 mg/kg/injection, schedule: Q04DX003 (ip), vehicle: Klucel (hydroxypropylcellulose) (HPC)
[6] = dose: 100.0 mg/kg/injection, schedule: Q01DX001 (ip), vehicle: carboxymethylcellulose (CMC)
[7] = dose: 200.0 mg/kg/injection, schedule: Q01DX001 (ip), vehicle: carboxymethylcellulose (CMC)
[8] = dose: 100.0 mg/kg/injection, schedule: Q01DX001 (ip), vehicle: Klucel (hydroxypropylcellulose) (HPC)
[9] = dose: 100.0 mg/kg/injection, schedule: Q01DX009 (ip), vehicle: Klucel (hydroxypropylcellulose) (HPC)
[10] = dose: 200.0 mg/kg/injection, schedule: Q01DX001 (ip), vehicle: Klucel (hydroxypropylcellulose) (HPC)
[11] = dose: 200.0 mg/kg/injection, schedule: Q01DX009 (ip), vehicle: Klucel (hydroxypropylcellulose) (HPC)
[12] = dose: 400.0 mg/kg/injection, schedule: Q01DX001 (ip), vehicle: Klucel (hydroxypropylcellulose) (HPC)
[13] = dose: 400.0 mg/kg/injection, schedule: Q01DX009 (ip), vehicle: Klucel (hydroxypropylcellulose) (HPC)
[14] = dose: 25.0 mg/kg/injection, schedule: Q01DX Z (ip), vehicle: methylcellulose (MC)
[15] = dose: 100.0 mg/kg/injection, schedule: Q01DX001 (ip), vehicle: saline
[16] = dose: 200.0 mg/kg/injection, schedule: Q01DX001 (ip), vehicle: saline
[17] = dose: 400.0 mg/kg/injection, schedule: Q01DX001 (ip), vehicle: saline
[18] = dose: 400.0 mg/kg/injection, schedule: Q01DX001 (ip), vehicle: carboxymethylcellulose (CMC)

Measured: T/C

Nc1nc(N)c(N)c(SCC(=O)C(=O)O)n1
inactive: dose: 25.0 mg/kg/injection, schedule: Q01DX001 (ip), vehicle: saline with Tween-80 108 % of control | dose: 50.0 mg/kg/injection, schedule: Q01DX001 (ip), vehicle: saline with Tween-80 111 % of control | [1] 106 % of control and 108 % of control | [2] 115 % of control

CCCCCCN(CCCCCC)CP(=S)(CN(CCCCCC)CCCCCC)CN(CCCCCC)CCCCCC
inactive: [1] 99 % of control | [2] 104 % of control

CCC[N+](C)(C)CC
inactive: dose: 37.5 mg/kg/injection, schedule: Q01DX001 (ip), vehicle: saline 104 % of control | dose: 75.0 mg/kg/injection, schedule: Q01DX001 (ip), vehicle: saline 95 % of control

CCCCCCCCCCCCCCCCCCSc1ccc2ccccc2c1
inactive: [3] 105 % of control | [4] 94 % of control | [5] 91 % of control

O=c1[nH]cnc2c1ncn2C1CCC(CO)C1 (configuration not stated)
inactive: [6] 100 % of control | dose: 177.0 mg/kg/injection, schedule: Q01DX001 (ip), vehicle: carboxymethylcellulose (CMC) 98 % of control | [7] 96 % of control | dose: 266.0 mg/kg/injection, schedule: Q01DX001 (ip), vehicle: carboxymethylcellulose (CMC) 98 % of control | dose: 600.0 mg/kg/injection, schedule: Q01DX001 (ip), vehicle: carboxymethylcellulose (CMC) 100 % of control

O=C(/C=C/C(=O)c1ccc(Cl)cc1)c1ccc(Cl)cc1
inactive: dose: 100.0 mg/kg/injection, schedule: Q01DX009 (ip), vehicle: gum acacia 95 % of control | dose: 100.0 mg/kg/injection, schedule: Q04DX003 (ip), vehicle: gum acacia 97 % of control | dose: 200.0 mg/kg/injection, schedule: Q01DX009 (ip), vehicle: gum acacia 95 % of control | dose: 200.0 mg/kg/injection, schedule: Q04DX003 (ip), vehicle: gum acacia 95 % of control | dose: 400.0 mg/kg/injection, schedule: Q01DX009 (ip), vehicle: gum acacia 101 % of control | dose: 400.0 mg/kg/injection, schedule: Q04DX003 (ip), vehicle: gum acacia 95 % of control

c1cc[c]([Pb]([c]2ccccc2)([c]2ccccc2)[n]2c3ccccc3c3ccccc32)cc1
inactive: dose: 1.56 mg/kg/injection, schedule: Q01DX009 (ip), vehicle: saline with Tween-80 99 % of control | dose: 3.12 mg/kg/injection, schedule: Q01DX009 (ip), vehicle: saline with Tween-80 98 % of control | dose: 6.25 mg/kg/injection, schedule: Q01DX009 (ip), vehicle: saline with Tween-80 91 % of control

COc1ccc(NC(=O)Oc2cccc(OC(=O)c3ccccc3)c2)cc1
inactive: [8] 96 % of control | [9] 104 % of control and 106 % of control | dose: 100.0 mg/kg/injection, schedule: Q04DX002 (ip), vehicle: Klucel (hydroxypropylcellulose) (HPC) 93 % of control and 103 % of control and 106 % of control | [3] 98 % of control | [10] 93 % of control | [11] 100 % of control and 103 % of control | dose: 200.0 mg/kg/injection, schedule: Q04DX002 (ip), vehicle: Klucel (hydroxypropylcellulose) (HPC) 99 % of control and 100 % of control and 103 % of control | [4] 98 % of control | [12] 93 % of control | [13] 97 % of control and 98 % of control | dose: 400.0 mg/kg/injection, schedule: Q04DX002 (ip), vehicle: Klucel (hydroxypropylcellulose) (HPC) 93 % of control and 97 % of control and 99 % of control | [5] 91 % of control

O=C1C=C(N2CCOCC2)c2cccc3cccc1c23
inactive: dose: 50.0 mg/kg/injection, schedule: Q01DX001 (ip), vehicle: Klucel (hydroxypropylcellulose) (HPC) 106 % of control | [8] 104 % of control | [9] 94 % of control | [10] 98 % of control | [11] 96 % of control

Cc1cc(N(C)c2ccccc2)nc(N)n1
inactive: [14] 96 % of control

CCCCCCCCCCCCCCCCN(C)S(=O)(=O)c1ccc(Cl)c(C(F)(F)F)c1
inactive: [3] 98 % of control | [4] 101 % of control | [5] 96 % of control

COCCNC(=O)N(CCOC)N=O
inactive: dose: 9.0 mg/kg/injection, schedule: Q01DX001 (ip), vehicle: saline 101 % of control | dose: 13.0 mg/kg/injection, schedule: Q01DX001 (ip), vehicle: saline 96 % of control | dose: 26.0 mg/kg/injection, schedule: Q01DX001 (ip), vehicle: saline 102 % of control | dose: 40.0 mg/kg/injection, schedule: Q01DX001 (ip), vehicle: saline 104 % of control | dose: 60.0 mg/kg/injection, schedule: Q01DX001 (ip), vehicle: saline 102 % of control | dose: 93.0 mg/kg/injection, schedule: Q01DX001 (ip), vehicle: saline 95 % of control | dose: 187.0 mg/kg/injection, schedule: Q01DX001 (ip), vehicle: saline 112 % of control | dose: 250.0 mg/kg/injection, schedule: Q01DX001 (ip), vehicle: saline 113 % of control | dose: 500.0 mg/kg/injection, schedule: Q01DX001 (ip), vehicle: saline 112 % of control

COC(OC)C(Br)(Br)Br
inactive: [15] 96 % of control | [16] 106 % of control | [17] 100 % of control

O=C1OCC(C(=O)c2ccccc2)C1=Nc1ccccc1O (configuration not stated)
inactive: dose: 50.0 mg/kg/injection, schedule: Q01DX001 (ip), vehicle: carboxymethylcellulose (CMC) 94 % of control | [6] 100 % of control | [7] 100 % of control | [18] 92 % of control

OC1CC2C=CC1C2 (configuration not stated)
inactive: [6] 93 % of control | [15] 107 % of control | [7] 95 % of control | [16] 88 % of control | [18] 101 % of control | [17] 109 % of control

O=C(Cl)OCC(Cl)(Cl)Cl
inactive: [8] 100 % of control | [9] 100 % of control | [10] 100 % of control | [11] 96 % of control | [12] 100 % of control

O=CC1OC(c2ccccc2)OC2COC(c3ccccc3)OC12 (configuration not stated)
inactive: [8] 103 % of control | [10] 97 % of control | [12] 93 % of control

COc1ccc(-c2c(C)c(C(=O)O)nc(-c3ccc4c(O)c(OC)c5c(c4n3)=NC(C)(C)N=5)c2N)c(O)c1OC
inactive: dose: 4.5 mg/kg/injection, schedule: Q01DX Z (ip), vehicle: water 104 % of control | dose: 6.7 mg/kg/injection, schedule: Q01DX Z (ip), vehicle: water 97 % of control | dose: 10.0 mg/kg/injection, schedule: Q01DX Z (ip), vehicle: water 111 % of control | dose: 15.0 mg/kg/injection, schedule: Q01DX Z (ip), vehicle: water 103 % of control

CCOC(=O)C1C(=O)C(CN(CCCl)CCCl)C(=O)C(C(=O)OCC)C1c1ccc(O)cc1 (configuration not stated)
inactive: [9] 113 % of control | [3] 106 % of control | [11] 112 % of control | [4] 110 % of control | [13] 110 % of control | [5] 114 % of control

CCc1c(N)nc(N)nc1Cl
inactive: [14] 91 % of control

Nc1ccc(-c2cc3ccccc3oc2=O)cc1
inactive: dose: 6.25 mg/kg/injection, schedule: Q04DX002 (ip), vehicle: Klucel (hydroxypropylcellulose) (HPC) 100 % of control and 119 % of control | dose: 12.5 mg/kg/injection, schedule: Q04DX002 (ip), vehicle: Klucel (hydroxypropylcellulose) (HPC) 92 % of control and 111 % of control | dose: 25.0 mg/kg/injection, schedule: Q04DX002 (ip), vehicle: Klucel (hydroxypropylcellulose) (HPC) 92 % of control and 102 % of control

Cc1ccccc1NC(=S)N1CCOCC1
inactive: [9] 105 % of control | [11] 108 % of control | [13] 111 % of control

O=C(Nc1ccc(F)cc1)OCC1CCCO1 (configuration not stated)
inactive: [6] 100 % of control | dose: 100.0 mg/kg/injection, schedule: Q01DX009 (ip), vehicle: carboxymethylcellulose (CMC) 102 % of control and 103 % of control | dose: 100.0 mg/kg/injection, schedule: Q04DX002 (ip), vehicle: carboxymethylcellulose (CMC) 100 % of control and 102 % of control | [7] 103 % of control | dose: 200.0 mg/kg/injection, schedule: Q01DX009 (ip), vehicle: carboxymethylcellulose (CMC) 92 % of control and 97 % of control | dose: 200.0 mg/kg/injection, schedule: Q04DX002 (ip), vehicle: carboxymethylcellulose (CMC) 95 % of control and 98 % of control | [18] 92 % of control | dose: 400.0 mg/kg/injection, schedule: Q01DX009 (ip), vehicle: carboxymethylcellulose (CMC) 96 % of control and 102 % of control | dose: 400.0 mg/kg/injection, schedule: Q04DX002 (ip), vehicle: carboxymethylcellulose (CMC) 92 % of control and 96 % of control
